Test results taken from PMC10122656, “Siglec-6 mediates the uptake of extracellular vesicles through a noncanonical glycolipid binding pocket” (Nature Communications, 2023).
Several values for one entry are separate records, joined by “and”; a condition that tells them apart may be missing. Equal entries are not always repeated.

Tests used:
Siglec-6-Fc WT = target: T1, Siglec-6-Fc WT (Homo sapiens, UniProt O43699); assay: Ganglioside ELISA; type: binding; settings: for ganglioside ELISA signal, Siglec-6 WT: Figure 2c, replicates; for ELISA recognition of adsorbed ganglioside by Siglec-6 (in words): ganglioside adsorbed to microplate, outside a bilayer
T1 construct: the Siglecs as Fc chimeras; made in house; host or cells: WT CHO cells
Experimental: (§1) Siglec-Fc constructs designed by Rodrigues et al.[30] were used in this work. Siglec-Fc constructs were expressed using WT CHO cells in cell culture media as described above with 1% HEPES. Cells incubated as described above for one-week post confluency. The supernatant was harvested and stored at 4 °C.
(§2) The purification was heavily inspired by Rodrigues et al.[30]. The purification of the Siglec-Fcs from supernatant began with Ni^2+ affinity chromatography using an AKTA FPLC equipped with a HisTrap Excel column (GE). The column was equilibrated with fifteen column volumes (CVs) of equilibrium buffer (500 mM NaCl, 20 mM NaPO4H2, pH 7.4). The Siglec-Fc containing supernatant was then loaded in its entirety onto the column. The column was then washed with fifteen CVs of wash buffer (500 mM NaCl, 30 mM imidazole, 20 mM NaPO4H2, pH 7.4). The Siglec-Fc was then eluted in 20 in 1 mL fractions with twenty CVs of elution buffer (500 mM NaCl, 500 mM imidazole, 20 mM NaPO4H2, pH 7.4). Fractions containing Siglec-Fc were compiled and then prepared for the next stage of purification by diluting the fractions 1:4 with buffer W (100 mM Tris–HCl, 150 mM NaCl, 1 mM EDTA, pH 8.0). A Strep-Tactin column (IBA life sciences) was washed with fifteen CVs of buffer W. The Siglec-Fc-buffer W solution was then loaded in its entirety onto the column. The bound Siglec-Fc was then washed with fifteen CVs of buffer W. Siglec-Fc was eluted from the column with 15 column volumes of buffer E (100 mM Tris–HCl, 150 mM NaCl, 1 mM EDTA, 10 mM d-Desthiobiotin, pH 8.0). Fractions containing Siglec-Fc were pooled and dialyzed against PBS to remove any d-Desthiobiotin. After dialysis, Siglec-Fcs were concentrated using an ultra-centrifugal device (30 kDa MWCO) and aliquoted into 5 µg aliquots, and frozen. The Siglec-Fcs were then lyophilized overnight, and the lyophilized Siglec-Fcs were stored at −20 °C.
(§3) Our ELISA approach was carried out similarly to previous work by Rapoport[12] and Yamakawa[44]. Ganglioside ethanol solutions (10 µM) were prepared and then transferred in 50 µL increments to a 96-well microplate. The ethanol was removed by drying the plates overnight at room temperature. The plates were then washed with PBS, dried, and then blocked with 5% (m/V) BSA PBS for 1 h. The plates were then washed with PBS and then 2 µg/mL Siglec-Fc precomplexed to Strep-Tactin (2 Siglec-Fc:1 Strep-Tactin monomer) horse radish peroxidase was added to the microplate. The complex was incubated with the plate at room temperature for 2 h. The unbound complexes were then removed by washing in PBS and the plate was developed with Sera care TMB solution. The amount of binding was then quantified by using the background (microplate well with no ligand) subtracted absorbance at 450 nm using a Molecular Devices SpectraMAX ® iD5.

Siglec-7-Fc R124A = target: T2, Siglec-7-Fc R124A (Homo sapiens, UniProt Q9Y286, R124A); assay: Ganglioside ELISA; type: binding; settings: Figure 2c, replicates
T2 construct: the Siglecs as Fc chimeras; made in house; host or cells: WT CHO cells
Experimental: as §1, §2, §3

Siglec-7-Fc WT = target: T3, Siglec-7-Fc WT (Homo sapiens, UniProt Q9Y286); assay: Ganglioside ELISA; type: binding; settings: Figure 2c, replicates
T3 construct: the Siglecs as Fc chimeras; made in house; host or cells: WT CHO cells
Experimental: as §1, §2, §3

Siglec-1-Fc WT = Siglec-1-Fc WT (Homo sapiens, UniProt Q9BZZ2); assay: Ganglioside ELISA; type: binding; settings: Figure 2c, replicates
Experimental: as §1, §2, §3

R122A Siglec-6-Fc = target: T4, R122A Siglec-6-Fc (Homo sapiens, UniProt O43699, R122A); assay: Ganglioside ELISA; type: binding; settings: Figure 2c, replicates
T4 construct: the Siglecs as Fc chimeras; made in house; host or cells: WT CHO cells
Experimental: as §1, §2, §3

[1] = tested on: untransfected (UT) CHO cells; assay: Cell assay (liposome/EV binding, flow cytometry); type: cell-based, Chinese Hamster; settings: UT; 3 mol% ganglioside liposomes; replicates
Experimental: (§4) Stock lipids (DSPC, Cholesterol, PEG45–DSPE) solutions were prepared by solvating the lipids in chloroform. An appropriate volume of each lipid solution was transferred to a glass test tube to reach the desired mol% of the component. The chloroform was then removed under N2 gas to yield a lipid thin film. Once dry, 100 µL of DMSO was added to the lipid-containing test tube and then the functional lipids (ganglioside, AF647–PEG45–DSPE, Siglec ligand–PEG45–DSPE, pHrodo–PEG45–DSPE, NGL) was added from their respect DMSO stock solution. The lipid mixture was then stored at −80 °C until completely frozen at which point excess DMSO was removed via lyophilization. Dry lipids were then stored at −80 °C until they were extruded. Lipid suppliers can be found in Supplementary Table 4.
(§5) Dry lipids were then hydrated in 1 mL of PBS. The lipids were then sonicated in a bath sonicator in a cycle of 1 min on, 5 min off for a total of five cycles. Liposomes were then extruded using an Avanti mini extruder first using an 800 nm filter and then a 100 nm filter yielding liposomes that were 130 ± 35 nm (Supplementary Table 5) measured using a Malvern Panalytical Zetasizer Nano S. Liposomes were stored at 4 °C.
(§6) 200,000 cells/well were plated into a 96-well U-bottom microplate and centrifuged at 300 × g for 5 min. The cells were then resuspended in 50 µL of 50 µM liposome/50 µg/mL (protein concentration) of EV solution in DMEM F12 5% FBS and incubated at 37 °C for 30 min. Excess liposomes were then removed via centrifuged at 300 × g for 5 min followed by washing the cells with FACS solution. The cells were then resuspended in (1:250 V/V) anti-Siglec-flow buffer (1% V/V FBS, 500 µM, EDTA Hank’s Balanced Salt Solution pH 7.4), solution and left to rest on ice for 30 min. The cells were then centrifuged again at 300 × g for 5 min and the cells were resuspended in FACS buffer solution and were then ready for analysis by flow cytometry. Information regarding antibody clone, catalog number supplier, label isotype, and dilution can be found in Supplementary Table 6. The Siglec-positive cells were gated on for liposome-binding analysis (Supplementary Fig. 1b).
(§7) Flow cytometry measurements were collected on a 5-laser Fortessa X-20 (BD Bioscience). All the resulting data were analyzed using FlowJo (10.5.3) software (BD Biosciences).

Siglec-8 WT CHO cells = target: T5, Siglec-8 WT CHO cells (Homo sapiens, UniProt Q9NYZ4); assay: Cell assay (liposome/EV binding, flow cytometry); type: cell-based; settings: Sig-8 WT; 3 mol% ganglioside liposomes; replicates
T5 construct: expressed in transfected cells
Experimental: as §4, §5, §6, §7

WT Siglec-1 CHO cells = target: T6, WT Siglec-1 CHO cells (Homo sapiens, UniProt Q9BZZ2); assay: Cell assay (liposome/EV binding, flow cytometry); type: cell-based; settings: Sig-1 WT; 3 mol% ganglioside liposomes; replicates
T6 construct: expressed in transfected cells
Experimental: as §4, §5, §6, §7

T1 sequence (O43699 27-347 limits assumed): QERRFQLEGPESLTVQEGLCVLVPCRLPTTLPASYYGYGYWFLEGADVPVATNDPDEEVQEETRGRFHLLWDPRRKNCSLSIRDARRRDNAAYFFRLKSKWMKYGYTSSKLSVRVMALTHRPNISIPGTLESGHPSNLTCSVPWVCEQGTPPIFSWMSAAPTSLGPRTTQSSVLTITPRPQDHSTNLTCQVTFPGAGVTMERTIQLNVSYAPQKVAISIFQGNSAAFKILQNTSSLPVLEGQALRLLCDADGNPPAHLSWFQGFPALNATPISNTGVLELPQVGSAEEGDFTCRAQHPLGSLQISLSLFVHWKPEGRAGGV
Sequence of Siglec-1-Fc WT (Q9BZZ2 20-136 limits assumed): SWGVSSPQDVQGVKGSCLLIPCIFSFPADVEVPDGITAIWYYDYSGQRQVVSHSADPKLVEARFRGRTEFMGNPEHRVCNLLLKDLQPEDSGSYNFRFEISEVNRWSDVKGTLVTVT
T5 sequence (Q9NYZ4 17-499): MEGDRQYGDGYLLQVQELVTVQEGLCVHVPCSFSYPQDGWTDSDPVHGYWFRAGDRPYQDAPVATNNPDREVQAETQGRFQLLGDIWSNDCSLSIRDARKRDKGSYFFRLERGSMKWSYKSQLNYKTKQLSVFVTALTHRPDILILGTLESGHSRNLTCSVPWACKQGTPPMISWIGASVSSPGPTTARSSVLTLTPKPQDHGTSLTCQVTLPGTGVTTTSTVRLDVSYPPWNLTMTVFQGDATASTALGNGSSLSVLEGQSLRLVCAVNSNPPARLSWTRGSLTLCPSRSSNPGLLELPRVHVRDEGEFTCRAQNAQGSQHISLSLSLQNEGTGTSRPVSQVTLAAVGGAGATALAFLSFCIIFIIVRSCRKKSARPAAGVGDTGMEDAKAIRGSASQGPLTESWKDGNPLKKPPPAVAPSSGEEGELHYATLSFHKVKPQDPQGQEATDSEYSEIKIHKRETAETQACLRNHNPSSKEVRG
T6 sequence (Q9BZZ2 20-1709): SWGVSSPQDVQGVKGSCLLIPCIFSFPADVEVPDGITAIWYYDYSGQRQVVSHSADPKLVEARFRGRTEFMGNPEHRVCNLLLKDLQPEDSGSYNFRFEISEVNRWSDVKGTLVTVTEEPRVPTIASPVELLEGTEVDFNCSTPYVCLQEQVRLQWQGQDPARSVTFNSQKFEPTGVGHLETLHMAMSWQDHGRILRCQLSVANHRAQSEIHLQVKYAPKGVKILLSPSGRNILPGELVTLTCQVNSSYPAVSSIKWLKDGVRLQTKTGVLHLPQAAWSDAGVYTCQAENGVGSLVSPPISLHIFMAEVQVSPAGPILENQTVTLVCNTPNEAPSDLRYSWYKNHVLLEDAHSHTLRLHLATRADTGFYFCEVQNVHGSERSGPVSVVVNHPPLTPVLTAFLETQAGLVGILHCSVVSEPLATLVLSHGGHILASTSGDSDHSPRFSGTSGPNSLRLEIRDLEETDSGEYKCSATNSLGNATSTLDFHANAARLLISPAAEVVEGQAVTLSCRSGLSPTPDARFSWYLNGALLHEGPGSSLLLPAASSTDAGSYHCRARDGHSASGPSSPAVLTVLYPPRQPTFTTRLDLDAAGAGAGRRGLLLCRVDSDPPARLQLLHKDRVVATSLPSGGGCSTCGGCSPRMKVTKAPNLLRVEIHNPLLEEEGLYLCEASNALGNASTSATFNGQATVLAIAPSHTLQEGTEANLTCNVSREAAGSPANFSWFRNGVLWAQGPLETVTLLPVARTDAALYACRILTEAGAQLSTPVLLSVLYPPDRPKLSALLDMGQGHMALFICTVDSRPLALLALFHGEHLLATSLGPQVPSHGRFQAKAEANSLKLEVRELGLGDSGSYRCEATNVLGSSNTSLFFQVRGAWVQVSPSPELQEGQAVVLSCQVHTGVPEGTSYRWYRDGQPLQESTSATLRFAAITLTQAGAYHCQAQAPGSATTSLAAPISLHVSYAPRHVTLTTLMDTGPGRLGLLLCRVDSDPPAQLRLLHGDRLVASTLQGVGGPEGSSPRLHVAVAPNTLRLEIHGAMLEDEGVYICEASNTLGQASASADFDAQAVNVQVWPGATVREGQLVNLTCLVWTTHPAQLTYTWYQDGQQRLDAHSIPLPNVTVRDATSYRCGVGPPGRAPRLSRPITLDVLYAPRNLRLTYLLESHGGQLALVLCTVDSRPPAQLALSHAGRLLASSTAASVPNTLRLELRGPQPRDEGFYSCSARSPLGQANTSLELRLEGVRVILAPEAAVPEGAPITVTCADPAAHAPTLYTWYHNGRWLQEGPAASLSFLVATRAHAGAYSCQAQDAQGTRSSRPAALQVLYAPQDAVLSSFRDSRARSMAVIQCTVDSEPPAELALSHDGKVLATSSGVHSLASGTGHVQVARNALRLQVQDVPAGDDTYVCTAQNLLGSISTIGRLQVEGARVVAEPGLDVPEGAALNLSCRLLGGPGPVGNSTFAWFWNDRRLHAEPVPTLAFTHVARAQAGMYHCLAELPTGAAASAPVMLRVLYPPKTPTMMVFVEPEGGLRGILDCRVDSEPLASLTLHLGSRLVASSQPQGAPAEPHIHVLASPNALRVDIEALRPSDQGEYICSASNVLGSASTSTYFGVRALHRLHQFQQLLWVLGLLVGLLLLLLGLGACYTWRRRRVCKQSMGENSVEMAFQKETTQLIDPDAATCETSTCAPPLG
T2 sequence (Q9Y286 19-353 R124A limits assumed): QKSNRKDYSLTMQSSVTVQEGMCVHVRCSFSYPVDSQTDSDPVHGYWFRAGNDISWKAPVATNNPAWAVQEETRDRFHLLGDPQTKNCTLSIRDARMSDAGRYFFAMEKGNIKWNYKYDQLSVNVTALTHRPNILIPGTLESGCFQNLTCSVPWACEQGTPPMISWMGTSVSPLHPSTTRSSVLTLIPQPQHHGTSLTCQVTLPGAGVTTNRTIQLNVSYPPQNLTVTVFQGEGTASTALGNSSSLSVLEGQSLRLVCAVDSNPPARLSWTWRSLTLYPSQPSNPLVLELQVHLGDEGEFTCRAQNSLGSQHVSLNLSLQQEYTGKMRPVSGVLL
T4 sequence (O43699 27-347 R122A limits assumed): as the sequence (O43699 27-347 limits assumed) above, with R96A counted along it
T3 sequence (Q9Y286 19-353 limits assumed): as the sequence (Q9Y286 19-353 R124A limits assumed) above, with A106R counted along it

| Substance | ganglioside ELISA signal, Siglec-6 WT (Siglec-6-Fc WT) | ELISA recognition of adsorbed ganglioside by Siglec-6 (in words) (Siglec-6-Fc WT) | ganglioside ELISA signal, Siglec-7 R (Siglec-7-Fc R124A) | ganglioside ELISA signal, Siglec-7 WT (Siglec-7-Fc WT) | ganglioside ELISA signal, Siglec-1 WT (Siglec-1-Fc WT) | ganglioside ELISA signal, Siglec-6 R (R122A Siglec-6-Fc) | log10(MFI AF647) of GLL relative to log10(MFI AF647) of the same GLL against UT CHO cells (Fig. 2a) [1] | log10(MFI AF647) of GLL relative to log10(MFI AF647) of the same GLL against UT CHO cells (Fig. 2a) (Siglec-8 WT CHO cells) | log10(MFI AF647) of GLL relative to log10(MFI AF647) of the same GLL against UT CHO cells (Fig. 2a) (WT Siglec-1 CHO cells) |
| --- | --- | --- | --- | --- | --- | --- | --- | --- | --- |
| GM4 | 0.22 and 0.25 and 0.27 and 0.23 | interacted weakly | -0.01 and 0 and -0.02 | 0.52 and 0.45 and 0.53 and 0.58 | 0.62 and 0.66 and 0.72 and 0.59 | 0.26 and 0.23 and 0.24 and 0.28 | 0.02 and -0.01 (2×) and 0 | -0.15 (2×) and -0.14 and -0.13 | 0.04 and 0.02 (2×) and -0.02 |
| GQ1b | -0.1 and -0.02 and -0.09 and -0.12 | did not recognize | -0.01 and 0 | 0.66 and 0.63 and 0.69 | 0.15 and 0.21 and 0.24 and 0.23 | 0.11 and 0.1 and 0.13 and 0.12 | 0.01 and -0.02 (2×) and 0.03 | -0.02 (2×) and -0.04 and 0.24 | 0.04 and 0.07 and 0.05 and 0.03 |
| GT1b | -0.04 and -0.01 and -0.09 and -0.11 | did not recognize | -0.01 and -0.02 | 0.49 and 0.55 and 0.5 | 0.25 and 0.3 and 0.43 and 0.46 | 0.11 and 0.08 and 0.1 and 0.13 | 0 (2×) and 0.01 and -0.01 | -0.21 and -0.22 and -0.23 and -0.19 | 0.29 (2×) and 0.32 and 0.23 |
